The record followed here is patent publication US4912104A, “Tricyclic fused pryimidine derivatives, and their use as pharmaceuticals” (Takeda Chemical Industries, Ltd., priority 1987, dated 1990).

In series [1] the test system is Phenyl quinone writhing. Description: Analgesic action (Phenyl quinone writhing method). The format is in vivo, Slc: ICR mice. As to conditions: Mus musculus, 20 min; 50 mg/kg oral, 30 minutes before phenyl quinone; 20 minutes counting; mice; read-out: Inhibition rate, Phenyl quinone writhing. On the procedure: Analgesic action (Phenyl quinone writhing method)
Using a group of 10 Slc: ICR mice (4 week old, male), analgesic action was investigated in accordance with the method of Siegmund et al. [Proc. Soc. Exp. Biol. Med., 95, 729(1957)]. A test sample in a dose of 50 mg/kg was orally administered, and 30 minutes later, a 0.02% aqueous phenyl quinone solution was intraperitoneally injected in the proportion of 0.1 ml relative to 10 g of body weight. Over the period of 20 minutes from the injection, the number of writhings was counted for the individual animals. By comparing the untreated and treated animal groups for the number of reactions, the writhing inhibition rate was determined.
(Writhing tests count abdominal constrictions after an irritant is injected.)

For series [2], the system named is acute hepatic failure due to P. acnes-LPS. Briefly: Effect against acute hepatic failure due to P. acnes-LPS (anti-lethal effect). It is filed as in vivo, BALB/c mice. The conditions noted are these: 0.3 mg/kg, p.o., one hour prior to LPS, 48 hours later; for Anti-lethal effect: Number of dead mice: group of 10, control 10 dead. On the procedure: A group of 10 BALB/c mice (7 week old, male) was used. Each mouse was injected into the tail vein with P. acnes killed by heating at a dose of 1 mg/mouse. Seven days later, each mouse was injected intravenously with LPS(1 l μg/mouse) derived from Salmonella enteritidis to cause acute hepatic failure. Usually, in a group of mice intravenously injected with LPS, 90% to 100% of the animals die within 24 hours. Using this model, each compound was tested. Each compound(I) shown in Table 2 was suspended in a 5% gum arabic vehicle and was orally administered to the animals at 0.3 mg/kg one hour prior to the injection of LPS, and then 48 hours later, the number of the dead mice was determined. The mice in the control group were orally given the 5% gum arabic vehicle one hour prior to LPS administration.

In series [3] the test system is Reversed passive Arthus reaction. Description: Antiinflammatory action (Reversed passive Arthus reaction). The format is in vivo, Jcl: SD rats. As to conditions: Rattus norvegicus, 1 h; 12.5 mg/kg oral, one hour before the injection of egg albumin; rats; read-out: Inhibition rate, Reversed passive Arthus reaction. On the procedure:
(2) Antiinflammatory action (Reversed passive Arthus reaction)
A group consisting of six Jcl: SD rats (7 week old, male was used. The hair of the back of the animals was cut, under ether anesthesia, and 1 ml each of a 0.5% solution of egg albumin in physiological saline solution was injected into the tail vein of each test animal, followed by intradermal injection of 0.1 ml of rabbit anti-egg albumin antiserum at each side of the left and right of the back and a further intradermal injection of 0.1 ml of physiological saline solution at the left side. Three hours later, each animal was intravenously injected with 1 ml of 1% Evans' blue physiological saline solution. Thirty minutes later, the test animals were exfoliated and the area(mm^2) of each of the blue spot was measured. The test sample in a dose of 12.5 mg/kg was orally administered one hour before the injection of egg albumin. By comparing the area(mm^2) of the blue spot in the test group with that of the control group, inhibition rate was determined.

Series [4] has as its system Carrageenin edema. Briefly: Antiinflammatory action (Carrageenin edema method). The format is in vivo, Jcl: SD rats. As to conditions: Rattus norvegicus; 50 mg/kg oral, one hour before carrageenin; paw volume 3 hours later; rats; read-out: Inhibition rate, Carrageenin edema. On the procedure:
(1) Antiinflammatory action (Carrageenin edema method)
Using a group of six Jcl: SD rats (6 week old, male), antiinflammatory action was investigated in accordance with the method of Winter et al. [Proc. Soc. Exp. Biol. Med., 111, 544(1962)]. One hour after the oral administration of 50 mg/kg of a test sample, the animals were injected subcutaneously with 0.05 ml each of a 1% solution of carrageenin in physiological saline solution into a sole. The volume of the hind-paw was measured 3 hours later and compared with that before the injection, and the edema volume was determined from the difference. By comparing the edema volumes of animal groups untreated and treated with test samples, the inhibition rate was determined.

Series [5] has as its system Jcl: ICR mice. As to conditions: mouse, in vivo. On the procedure:
A group of 5 Jcl: Wistar rats (5 week old, 90-110 g body weight, Japan Clea, male) and a group of 5 Jcl: ICR mice (5 week old, 25-30 g body weight, Japan Clea, male) were used. These rats were each administerred orally with 10 ml/kg of the test compound (250 mg/kg), while these mice were each administered orally with 20 ml/kg of the test compound (500 mg/kg).
These oral administrations were made on the form of a suspension in 5% gum arabic vehicle. One week later, the number of dead animals was observed.

Consider `CCCCn1c(=O)n(CCC)c(=O)c2c1nn1cc[nH]c21` [compound 43], for which, in series [1], the inhibition in vivo at 50 mg/kg came to 89%. Also, in series [2], the “Anti-lethal effect: effective ratio” value turned out to be 100% and the “Anti-lethal effect: Number of dead mice” value amounted to 0. The inhibition in vivo at 12.5 mg/kg in series [3] came out at 90%. The inhibition in vivo at 50 mg/kg in series [4] came out at 109%.
With `CCCn1c(=O)c2c3n(nc2n(CCC)c1=O)CCN3` [compound 13], the inhibition in vivo at 50 mg/kg in series [1] was 95%; in series [4] it was 97%. Besides, the “number of dead animals, Mice” value in series [5] was 0. For the same molecule, the inhibition in vivo at 12.5 mg/kg in series [3] was found to be 65%.
As to `C=CCn1c(=O)n(CCC)c(=O)c2c3n(nc21)CCN3` [compound 18], the inhibition in vivo at 50 mg/kg in series [1] was found to be 90%; in series [4] it was 93%. For the same molecule, in series [3], the inhibition in vivo at 12.5 mg/kg turned out to be 87%.
Regarding `C=CCn1c(=O)n(CCC)c(=O)c2c1nn1cc[nH]c21` [compound 49], the inhibition in vivo at 50 mg/kg in series [1] and in series [4] was 80% throughout. The “Anti-lethal effect: effective ratio” value in series [2] is listed as 70%. The “Anti-lethal effect: Number of dead mice” value in series [2] stood at 3. In series [3], the inhibition in vivo at 12.5 mg/kg turned out to be 88%.
On to `CCCCCn1c(=O)n(CCC)c(=O)c2c3n(nc21)CCN3` [compound 6], for which the values for the inhibition in vivo at 50 mg/kg in series [1] and in series [4] were 96% and 105%, respectively. The inhibition in vivo at 12.5 mg/kg in series [3] amounted to 71%.
Take `CCCCn1c(=O)c2c(nn3cc[nH]c23)n(CCCC)c1=O` [compound 46]: the inhibition in vivo at 50 mg/kg in series [1] is 96%; in series [4], 90%. For the same molecule, the “Anti-lethal effect: effective ratio” value in series [2] is on record as 80%. In addition, the “Anti-lethal effect: Number of dead mice” value in series [2] is on record as 2. Moreover, the inhibition in vivo at 12.5 mg/kg in series [3] was 70%.
As for `C=CCn1c(=O)c2c3n(nc2n(CC=C)c1=O)CCN3` [compound 29], the inhibition in vivo at 50 mg/kg in series [1] is 80%; in series [4], 79%. For the same molecule, in series [3], the inhibition in vivo at 12.5 mg/kg was determined as 73%.
In the same order, the values of `CCCCn1c(=O)c2c3n(nc2n(CCCC)c1=O)CCN3` [compound 3] are 98%, 100% and 68%.
In the case of `CCn1c(=O)c2c3n(nc2n(CC)c1=O)CCN3` [compound 7], the values for the inhibition in vivo at 50 mg/kg in series [1] and in series [4] were 52% and 99%, respectively. The inhibition in vivo at 12.5 mg/kg in series [3] was 42%.
Turning to `CCCCn1c(=O)n(CCC)c(=O)c2c3n(nc21)CCN3C(C)=O` [compound 40], the inhibition in vivo at 50 mg/kg was 89% in series [1] and 82% in series [4]. Besides, in series [5], the “number of dead animals, Mice” value is recorded as 0. Moreover, the inhibition in vivo at 12.5 mg/kg in series [3] amounted to 69%.
As for `CCCn1c(=O)c2c(nn3cc[nH]c23)n(CCC)c1=O` [compound 44], the values for the inhibition in vivo at 50 mg/kg in series [1] and in series [4] were 96% and 90%, respectively. Also, the “Anti-lethal effect: effective ratio” value in series [2] is reported as 100%. For the same molecule, in series [2], the “Anti-lethal effect: Number of dead mice” value is given as 0. The inhibition in vivo at 12.5 mg/kg in series [3] turned out to be 91%.
Take `CCCn1c(=O)c2c3n(nc2n(CCC(C)C)c1=O)CCN3` [compound 17]: the inhibition in vivo at 50 mg/kg in series [1] came to 79%; in series [4] it was 83%. The inhibition in vivo at 12.5 mg/kg in series [3] came out at 73%.
With `CCCCn1c(=O)n(CCC)c(=O)c2c3n(nc21)CCN3` [compound 2], the inhibition in vivo at 50 mg/kg in series [1] worked out at 100%; in series [4], 103%. In addition, in series [3], the inhibition in vivo at 12.5 mg/kg is 65%.
For the molecule `CCCCn1c(=O)n(CCC)c(=O)c2c3n(nc21)CCN3C` [compound 1], the inhibition in vivo at 50 mg/kg in series [1] stood at 97%; in series [4], 70%. The inhibition in vivo at 12.5 mg/kg in series [3] turned out to be 32%.
In the same order, the values of `CCCn1c(=O)c2c3n(nc2n(CC)c1=O)CCN3` [compound 10] are 87%, 100% and 36%.
Regarding `CCCCCn1c(=O)n(CCC)c(=O)c2c1nn1cc[nH]c21` [compound 50], in series [1], the inhibition in vivo at 50 mg/kg stood at 89%. In series [2], the “Anti-lethal effect: effective ratio” value came to 90% and the “Anti-lethal effect: Number of dead mice” value amounted to 1. In addition, in series [3], the inhibition in vivo at 12.5 mg/kg came out at 79%. Besides, the inhibition in vivo at 50 mg/kg in series [4] was 78%.
In the same order, the values of `CCCn1c(=O)c2c(nn3cc[nH]c23)n(CC(C)C)c1=O` [compound 48] are 91%, 90%, 1, 93% and 95%.
In the case of `CCCn1c(=O)c2c3n(nc2n(CCC)c1=O)CCN3C(=O)CC` [compound 33], the inhibition in vivo at 50 mg/kg in series [1] came out at 77%; in series [4], 87%. Besides, the inhibition in vivo at 12.5 mg/kg in series [3] amounted to 87%.
For `C=CCn1c(=O)c2c(nn3cc[nH]c23)n(CC=C)c1=O` [compound 45], the inhibition in vivo at 50 mg/kg in series [1] came out at 87%. For the same molecule, in series [2], the “Anti-lethal effect: effective ratio” value was determined as 100% and the “Anti-lethal effect: Number of dead mice” value came to 0. Moreover, the inhibition in vivo at 12.5 mg/kg in series [3] turned out to be 74%. Further, the inhibition in vivo at 50 mg/kg in series [4] came to 85%.
